Measurements: ChEMBL document CHEMBL5465560, “Selectivity Literature for EUbOPEN Chemogenomic Library” (2024)

Columns and labels:
[1] = biological target: T1, Serine/threonine-protein kinase Sgk1 (Homo sapiens) (UniProt O00141); test: Selectivity interaction (Millipore kinase profiler) EUB0000124b SGK1; details: at 10 µM
T1 sequence (whole entry): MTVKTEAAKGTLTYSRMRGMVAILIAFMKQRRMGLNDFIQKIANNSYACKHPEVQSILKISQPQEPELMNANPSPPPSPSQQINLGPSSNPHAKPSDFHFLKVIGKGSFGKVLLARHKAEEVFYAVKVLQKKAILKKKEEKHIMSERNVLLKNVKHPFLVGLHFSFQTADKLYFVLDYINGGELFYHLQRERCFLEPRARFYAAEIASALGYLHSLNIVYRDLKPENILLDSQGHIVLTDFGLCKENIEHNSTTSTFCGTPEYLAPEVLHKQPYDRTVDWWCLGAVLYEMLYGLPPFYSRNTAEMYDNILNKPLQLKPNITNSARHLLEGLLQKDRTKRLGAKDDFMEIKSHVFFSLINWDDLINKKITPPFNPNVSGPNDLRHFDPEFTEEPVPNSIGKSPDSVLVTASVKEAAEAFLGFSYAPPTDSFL

[2] = biological target: T2, Calcium/calmodulin-dependent protein kinase type IV (Homo sapiens) (UniProt Q16566); test: Selectivity interaction (KinomeScan (DiscoverX)) EUB0000666a CAMK4; details: at 10 µM
T2 sequence (whole entry): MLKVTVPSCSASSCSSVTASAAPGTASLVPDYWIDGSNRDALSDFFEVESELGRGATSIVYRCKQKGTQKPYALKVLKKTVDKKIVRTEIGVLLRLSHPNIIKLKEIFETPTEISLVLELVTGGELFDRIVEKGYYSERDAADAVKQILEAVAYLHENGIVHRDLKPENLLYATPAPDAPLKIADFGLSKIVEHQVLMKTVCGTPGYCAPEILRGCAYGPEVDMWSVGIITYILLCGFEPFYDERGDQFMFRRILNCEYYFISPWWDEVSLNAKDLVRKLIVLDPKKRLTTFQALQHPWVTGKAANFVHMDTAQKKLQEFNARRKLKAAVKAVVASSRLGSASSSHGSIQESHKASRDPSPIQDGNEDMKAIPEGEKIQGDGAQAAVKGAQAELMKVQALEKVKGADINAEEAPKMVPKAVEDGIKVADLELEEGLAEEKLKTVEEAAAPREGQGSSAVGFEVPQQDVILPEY

[3] = biological target: T3, Inhibitor of nuclear factor kappa-B kinase subunit beta (Homo sapiens) (UniProt O14920); test: Selectivity interaction (Kinase panel (KiNativ target engagement assay in Jurkat cells)) EUB0001635a IKBKB; format: cell-based; details: Selectivity number of off-targets 0.0, Selectivity number of targets 233.0, Source Knowledge https://www.sciencedirect.com/science/article/pii/S2451945619300674?via%3Dihub, at 1 µM
T3 sequence (whole entry): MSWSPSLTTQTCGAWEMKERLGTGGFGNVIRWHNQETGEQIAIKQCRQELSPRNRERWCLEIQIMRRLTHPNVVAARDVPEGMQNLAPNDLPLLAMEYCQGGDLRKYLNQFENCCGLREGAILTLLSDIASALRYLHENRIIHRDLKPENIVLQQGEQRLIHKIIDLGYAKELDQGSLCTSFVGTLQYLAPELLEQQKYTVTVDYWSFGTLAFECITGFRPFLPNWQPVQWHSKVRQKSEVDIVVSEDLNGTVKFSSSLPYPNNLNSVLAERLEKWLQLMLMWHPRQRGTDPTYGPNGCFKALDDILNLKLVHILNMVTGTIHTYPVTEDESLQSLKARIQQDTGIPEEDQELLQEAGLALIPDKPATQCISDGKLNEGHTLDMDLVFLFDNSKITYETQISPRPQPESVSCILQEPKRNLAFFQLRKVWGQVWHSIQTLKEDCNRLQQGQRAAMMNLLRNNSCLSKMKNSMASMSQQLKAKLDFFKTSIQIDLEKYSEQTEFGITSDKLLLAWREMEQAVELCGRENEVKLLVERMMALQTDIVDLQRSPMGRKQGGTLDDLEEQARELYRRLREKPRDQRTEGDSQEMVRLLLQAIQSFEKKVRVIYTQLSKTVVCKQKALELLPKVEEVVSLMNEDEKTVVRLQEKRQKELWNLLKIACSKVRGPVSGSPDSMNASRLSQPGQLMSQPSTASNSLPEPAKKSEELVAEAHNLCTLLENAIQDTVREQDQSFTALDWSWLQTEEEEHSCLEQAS

[4] = biological target: Bromodomain testis-specific protein (Homo sapiens) (UniProt Q58F21); test: Selectivity interaction (Bromodomain panel (DSF asssay)) EUB0000270b BRDT
[5] = biological target: Dual specificity mitogen-activated protein kinase kinase 1 (Homo sapiens, UniProt Q02750); test: Selectivity interaction (Kinase panel (Invitrogen)) EUB0000639a MAP2K1; details: at 200 nM
Chain of Dual specificity mitogen-activated protein kinase kinase 1 (Q02750 whole entry): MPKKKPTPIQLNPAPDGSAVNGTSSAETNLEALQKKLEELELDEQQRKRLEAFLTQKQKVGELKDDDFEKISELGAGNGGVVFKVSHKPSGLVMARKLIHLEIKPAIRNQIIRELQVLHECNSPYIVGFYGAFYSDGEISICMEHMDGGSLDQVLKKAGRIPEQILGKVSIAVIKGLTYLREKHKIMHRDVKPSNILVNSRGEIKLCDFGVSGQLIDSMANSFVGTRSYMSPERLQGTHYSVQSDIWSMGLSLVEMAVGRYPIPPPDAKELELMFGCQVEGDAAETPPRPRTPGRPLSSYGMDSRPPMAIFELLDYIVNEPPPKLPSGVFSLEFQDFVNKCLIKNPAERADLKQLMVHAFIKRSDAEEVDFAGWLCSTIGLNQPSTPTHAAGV

[6] = biological target: Tyrosine-protein kinase Fer (Homo sapiens) (UniProt P16591); test: Selectivity interaction (KinomeScan (DiscoverX)) EUB0000595a FER; details: at 10 µM
[7] = biological target: Death-associated protein kinase 1 (Homo sapiens, UniProt P53355); test: Selectivity interaction (KinomeScan (DiscoverX)) EUB0001619a DAPK1; details: at 1 µM
Chain of Death-associated protein kinase 1 (P53355 whole entry, looked up): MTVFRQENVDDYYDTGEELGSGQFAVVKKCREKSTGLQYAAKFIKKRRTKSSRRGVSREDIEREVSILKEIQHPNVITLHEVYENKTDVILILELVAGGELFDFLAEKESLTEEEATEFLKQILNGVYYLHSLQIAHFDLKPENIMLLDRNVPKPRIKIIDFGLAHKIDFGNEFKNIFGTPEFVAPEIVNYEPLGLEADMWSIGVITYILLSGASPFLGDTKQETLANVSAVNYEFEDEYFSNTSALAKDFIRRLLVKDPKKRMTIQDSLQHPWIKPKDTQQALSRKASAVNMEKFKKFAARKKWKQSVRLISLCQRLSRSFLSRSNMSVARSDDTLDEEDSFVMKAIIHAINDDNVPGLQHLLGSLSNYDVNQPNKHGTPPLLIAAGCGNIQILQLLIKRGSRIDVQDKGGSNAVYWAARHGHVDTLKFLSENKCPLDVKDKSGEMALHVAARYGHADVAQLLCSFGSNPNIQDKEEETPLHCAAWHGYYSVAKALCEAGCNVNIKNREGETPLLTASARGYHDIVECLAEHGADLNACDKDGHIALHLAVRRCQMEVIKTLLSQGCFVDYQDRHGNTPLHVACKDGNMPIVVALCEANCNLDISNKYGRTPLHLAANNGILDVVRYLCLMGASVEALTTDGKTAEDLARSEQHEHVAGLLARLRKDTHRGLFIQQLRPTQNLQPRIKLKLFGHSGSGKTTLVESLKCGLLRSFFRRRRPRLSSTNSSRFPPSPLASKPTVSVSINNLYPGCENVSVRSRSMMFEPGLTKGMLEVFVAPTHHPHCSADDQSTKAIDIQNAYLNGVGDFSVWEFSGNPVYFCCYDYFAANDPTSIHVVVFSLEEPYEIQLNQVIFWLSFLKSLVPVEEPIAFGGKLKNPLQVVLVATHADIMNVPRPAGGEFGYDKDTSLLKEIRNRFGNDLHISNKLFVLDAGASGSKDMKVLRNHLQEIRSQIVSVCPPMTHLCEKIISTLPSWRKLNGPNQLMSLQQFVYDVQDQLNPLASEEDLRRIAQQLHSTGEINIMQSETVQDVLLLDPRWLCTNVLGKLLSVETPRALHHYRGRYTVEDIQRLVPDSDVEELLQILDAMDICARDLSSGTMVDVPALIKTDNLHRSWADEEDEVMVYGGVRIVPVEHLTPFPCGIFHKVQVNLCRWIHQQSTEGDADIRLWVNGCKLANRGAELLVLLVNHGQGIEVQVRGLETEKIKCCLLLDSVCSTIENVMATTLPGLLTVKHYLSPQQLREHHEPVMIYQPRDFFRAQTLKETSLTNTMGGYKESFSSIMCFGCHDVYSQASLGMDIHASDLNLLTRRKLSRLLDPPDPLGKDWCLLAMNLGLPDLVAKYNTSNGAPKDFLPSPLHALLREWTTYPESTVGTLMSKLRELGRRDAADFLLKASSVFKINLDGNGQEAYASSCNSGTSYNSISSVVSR

[8] = system: Epidermal growth factor receptor (Homo sapiens), P00533 [UNDEFINED MUTATION]; test: Selectivity interaction (KinomeScan (DiscoverX)) EUB0001619a EGFR; details: at 1 µM
[9] = biological target: Protein kinase C alpha type (Homo sapiens, UniProt P17252); test: Selectivity interaction (Upstate Kinase Profiler service (Millipore)) EUB0000056c PRKCA; details: at 1 µM
[10] = biological target: Macrophage-stimulating protein receptor (Homo sapiens, UniProt Q04912); test: Selectivity interaction (KinomeScan (DiscoverX)) EUB0000695a MST1R; details: at 100 nM
Chain of Macrophage-stimulating protein receptor (Q04912 25-304 limits assumed): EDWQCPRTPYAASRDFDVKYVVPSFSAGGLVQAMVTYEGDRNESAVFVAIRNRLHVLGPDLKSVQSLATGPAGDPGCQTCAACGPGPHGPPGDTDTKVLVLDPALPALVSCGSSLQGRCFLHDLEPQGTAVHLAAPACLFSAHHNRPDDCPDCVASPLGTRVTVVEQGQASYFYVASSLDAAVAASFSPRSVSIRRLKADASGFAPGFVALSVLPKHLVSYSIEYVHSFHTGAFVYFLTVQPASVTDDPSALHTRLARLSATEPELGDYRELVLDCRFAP
Chain of Macrophage-stimulating protein receptor (Q04912 310-1400 limits assumed): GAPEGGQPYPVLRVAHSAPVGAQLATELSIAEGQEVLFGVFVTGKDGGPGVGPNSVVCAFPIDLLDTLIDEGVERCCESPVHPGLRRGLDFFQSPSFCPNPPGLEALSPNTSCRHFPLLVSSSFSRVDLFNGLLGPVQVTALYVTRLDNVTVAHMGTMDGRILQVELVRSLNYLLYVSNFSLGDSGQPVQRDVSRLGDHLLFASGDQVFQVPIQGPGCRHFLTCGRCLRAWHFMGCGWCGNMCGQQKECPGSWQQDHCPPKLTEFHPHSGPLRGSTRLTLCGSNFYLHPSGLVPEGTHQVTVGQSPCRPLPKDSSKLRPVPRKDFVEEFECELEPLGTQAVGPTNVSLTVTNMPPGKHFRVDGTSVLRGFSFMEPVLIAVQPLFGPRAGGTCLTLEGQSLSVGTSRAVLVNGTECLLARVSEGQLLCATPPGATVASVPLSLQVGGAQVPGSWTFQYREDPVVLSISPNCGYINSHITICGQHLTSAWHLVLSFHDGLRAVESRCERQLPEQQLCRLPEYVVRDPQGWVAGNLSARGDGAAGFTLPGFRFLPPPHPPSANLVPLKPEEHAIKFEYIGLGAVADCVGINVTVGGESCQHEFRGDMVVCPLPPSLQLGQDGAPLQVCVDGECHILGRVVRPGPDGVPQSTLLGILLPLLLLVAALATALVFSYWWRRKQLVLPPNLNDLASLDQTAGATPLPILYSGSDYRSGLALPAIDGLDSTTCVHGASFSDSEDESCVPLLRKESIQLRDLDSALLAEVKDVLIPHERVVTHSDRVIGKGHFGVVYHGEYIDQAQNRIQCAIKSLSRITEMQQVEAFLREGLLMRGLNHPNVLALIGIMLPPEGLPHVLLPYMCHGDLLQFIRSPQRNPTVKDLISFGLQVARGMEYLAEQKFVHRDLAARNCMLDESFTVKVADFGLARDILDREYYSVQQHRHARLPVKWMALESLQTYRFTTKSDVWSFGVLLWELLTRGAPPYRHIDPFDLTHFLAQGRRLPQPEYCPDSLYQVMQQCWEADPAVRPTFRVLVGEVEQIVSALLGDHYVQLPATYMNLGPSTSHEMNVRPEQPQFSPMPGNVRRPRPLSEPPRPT

[11] = biological target: Cyclin-dependent kinase-like 3 (Homo sapiens) (UniProt Q8IVW4); test: Selectivity interaction (KinomeScan (DiscoverX)) EUB0000607a CDKL3; details: at 10 µM
[12] = biological target: LIM domain kinase 2 (Homo sapiens) (UniProt P53671); test: Selectivity interaction (ProQinase) EUB0000171b LIMK2
Chain of LIM domain kinase 2 (Homo sapiens) (P53671 whole entry, looked up, the tested form may be a part): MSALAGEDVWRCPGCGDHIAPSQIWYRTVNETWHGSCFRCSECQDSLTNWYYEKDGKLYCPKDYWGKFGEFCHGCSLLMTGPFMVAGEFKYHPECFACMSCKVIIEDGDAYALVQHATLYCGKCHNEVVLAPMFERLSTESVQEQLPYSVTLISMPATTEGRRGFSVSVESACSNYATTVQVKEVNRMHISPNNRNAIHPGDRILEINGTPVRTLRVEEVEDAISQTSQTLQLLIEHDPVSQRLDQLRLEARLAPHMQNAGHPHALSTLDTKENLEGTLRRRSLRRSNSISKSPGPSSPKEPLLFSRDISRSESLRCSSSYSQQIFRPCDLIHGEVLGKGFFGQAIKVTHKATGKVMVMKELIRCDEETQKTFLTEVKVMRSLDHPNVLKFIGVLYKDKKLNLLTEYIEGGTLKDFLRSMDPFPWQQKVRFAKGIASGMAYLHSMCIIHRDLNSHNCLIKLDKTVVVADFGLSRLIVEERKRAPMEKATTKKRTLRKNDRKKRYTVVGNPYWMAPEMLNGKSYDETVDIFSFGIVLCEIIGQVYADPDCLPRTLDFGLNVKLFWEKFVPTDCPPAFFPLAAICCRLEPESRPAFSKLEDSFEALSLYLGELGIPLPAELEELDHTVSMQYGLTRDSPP

CC(=O)Nc1cccc(-n2c(=O)n(C3CC3)c(=O)c3c(Nc4ccc(I)cc4F)n(C)c(=O)c(C)c32)c1
% of control [1]: 114%

O=C(NOC[C@H](O)CO)c1ccc(F)c(F)c1Nc1ccc(I)cc1F
% of control [2]: 100%

C=CC(=O)Nc1ccc(C(=O)Nc2[nH]nc3c2CN(C(=O)N[C@H](CN(C)C)c2ccccc2)C3(C)C)cc1
% of engagement [3]: -20.2%

Cc1cc(CN)cc(C)c1-c1ncn(C)c1-c1cncn1C
dTM [4]: -1.8 K

CC[C@@H]1[C@H](F)C(=O)N[C@@H]1COc1nccc2cc(C(N)=O)c(OC)cc12 [ZIMLOVISERTIB]
% of inhibition [5]: 24.2%

COCC(=O)NC/C=C/c1ccc2ncnc(Nc3ccc(Oc4ccc(C)nc4)c(C)c3)c2c1 [CP-724714]
% of control [6]: 100%

N#Cc1cccc(-c2c[nH]c3ncnc(N4CCOCC4)c23)c1
% of control [7]: 89% | % of control [8]: 83%

Cc1ccc(-c2ccc3c(ccc4sc5c(c43)NC[C@@H](C)NC5=O)n2)cn1
% of inhibition [9]: 11%

Cc1cc(F)c(C(=O)Nc2cccc(-c3nncn3C(C)C)n2)cc1-n1cnc(C2CC2)c1
% of control [10]: 100%

CNC(=O)Nc1ccc(-c2nc(N3CC4CCC(C3)O4)c3cnn(C4CCC5(CC4)OCCO5)c3n2)cc1
% of control [11]: 95%

C=CC(=O)Nc1cccc(C(=O)Nc2ccc(Nc3cc(-c4[nH]c(SC)nc4C)ccn3)cc2)c1
% of control ([12]; at 1 µM): 90% | % of control ([12]; at 5 µM): 80%
